pEC50: −log10 of the molar value. Read-outs that look alike come from different tables or passages of the source.
Tested on: HIV-IIIb
Assay: Test A: Antiviral Assay in MT4 Cells
Assay type: cell-based
Procedure, shortened: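 MT-4 cells pre-infected with HIV-IIIb (0.004 m.o.i.) at 37 °C, then exposed to 3-fold serial compound dilutions (10 concentrations, quadruplicate) in RPMI 1640/10% FBS. After 5 days at 37 °C, viability read by CellTiter-Glo luminescence.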

[1] = Human immunodeficiency virus 1, IIIB, MT4, 120 h, Table 2, MT-4 cells infected with HIV-IIIb, 5 days of incubation, CellTiter-Glo, read-out: EC50
[2] = Human immunodeficiency virus 1, IIIB, MT4, 120 h

| Compound | pEC50 [1] | other results |
| --- | --- | --- |
| Cc1cc2nc(-c3ccnc(N4CCN(C)[C@H](C)C4)n3)sc2c(-c2ccc(Cl)cc2)c1[C@H](OC(C)(C)C)C(=O)O [Compound 469, (S)-2-tert-butoxy-2-(7-(4-chlorophenyl)-2-(2-((R)-3,4-dimethylpiperazin-1-yl)pyrimidin-4-yl)-5-methylbenzo[d]thiazol-6-yl)acetic acid] | 8.10 | – |
| Cc1cc2nc(-c3ccnc(N4CCN(C(C)C)[C@@H](C)C4)n3)sc2c(-c2ccc(Cl)cc2)c1[C@H](OC(C)(C)C)C(=O)O [Compound 470, (S)-2-tert-butoxy-2-(7-(4-chlorophenyl)-2-(2-((S)-4-isopropyl-3-methylpiperazin-1-yl)pyrimidin-4-yl)-5-methylbenzo[d]thiazol-6-yl)acetic acid] | 8.52 | – |
| Cc1cc2nc(-c3ccnc(N4CCN(C(C)C)[C@H](C)C4)n3)sc2c(-c2ccc(Cl)cc2)c1[C@H](OC(C)(C)C)C(=O)O [Compound 471, (S)-2-tert-butoxy-2-(7-(4-chlorophenyl)-2-(2-((R)-4-isopropyl-3-methylpiperazin-1-yl)pyrimidin-4-yl)-5-methylbenzo[d]thiazol-6-yl)acetic acid] | 8.52 | – |
| Cc1cc2nc(-c3ccnc(N4CCN(C(=O)N(C)C)CC4)n3)sc2c(-c2ccc(Cl)cc2)c1[C@H](OC(C)(C)C)C(=O)O [Compound 472, (S)-2-tert-butoxy-2-(7-(4-chlorophenyl)-2-(2-(4-(dimethylcarbamoyl)piperazin-1-yl)pyrimidin-4-yl)-5-methylbenzo[d]thiazol-6-yl)acetic acid] | 8.40 | – |
| CCN1CCN(c2nccc(-c3nc4cc(C)c([C@H](OC(C)(C)C)C(=O)O)c(-c5ccc(Cl)cc5)c4s3)n2)CC1=O [Compound 473, (S)-2-tert-butoxy-2-(7-(4-chlorophenyl)-2-(2-(4-ethyl-3-oxopiperazin-1-yl)pyrimidin-4-yl)-5-methylbenzo[d]thiazol-6-yl)acetic acid] | 8.10 | – |
| Cc1cc2nc(-c3ccnc(N4CCN(C(C)C(F)(F)F)CC4)n3)sc2c(-c2ccc(Cl)cc2)c1[C@H](OC(C)(C)C)C(=O)O (stereo partly drawn) [Compound 474, (2S)-2-tert-butoxy-2-(7-(4-chlorophenyl)-5-methyl-2-(2-(4-((2R/2S)-1,1,1-trifluoropropan-2-yl)piperazin-1-yl)pyrimidin-4-yl)benzo[d]thiazol-6-yl)acetic acid] | 7.40 | – |
| CCN1CCN(c2nccc(-c3nc4cc(C)c([C@H](OC(C)(C)C)C(=O)O)c(-c5ccc(Cl)cc5)c4s3)n2)CC1 [Compound 475, (S)-2-tert-butoxy-2-(7-(4-chlorophenyl)-2-(2-(4-ethylpiperazin-1-yl)pyrimidin-4-yl)-5-methylbenzo[d]thiazol-6-yl)acetic acid] | 8.22 | – |
| Cc1cc2nc(-c3ccnc(N4CCNCC4)n3)sc2c(-c2ccc(Cl)cc2)c1[C@H](OC(C)(C)C)C(=O)O [Compound 476, (S)-2-tert-butoxy-2-(7-(4-chlorophenyl)-5-methyl-2-(2-(piperazin-1-yl)pyrimidin-4-yl)benzo[d]thiazol-6-yl)acetic acid] | 6.89 | – |
| Cc1cc2nc(-c3ccnc(N4CCCN(C)CC4)n3)sc2c(-c2ccc(Cl)cc2)c1[C@H](OC(C)(C)C)C(=O)O [Compound 477, (S)-2-tert-butoxy-2-(7-(4-chlorophenyl)-5-methyl-2-(2-(4-methyl-1,4-diazepan-1-yl)pyrimidin-4-yl)benzo[d]thiazol-6-yl)acetic acid] | 7.85 | – |
| Cc1cc2nc(-c3ccnc(N4CC[C@H](N(C)C)C4)n3)sc2c(-c2ccc(Cl)cc2)c1[C@H](OC(C)(C)C)C(=O)O [Compound 478, (S)-2-tert-butoxy-2-(7-(4-chlorophenyl)-2-(2-((S)-3-(dimethylamino)pyrrolidin-1-yl)pyrimidin-4-yl)-5-methylbenzo[d]thiazol-6-yl)acetic acid] | 8.40 | – |
| Cc1cc2nc(-c3ccnc(N4CC[C@@H](N(C)C)C4)n3)sc2c(-c2ccc(Cl)cc2)c1[C@H](OC(C)(C)C)C(=O)O [Compound 479, (S)-2-tert-butoxy-2-(7-(4-chlorophenyl)-2-(2-((R)-3-(dimethylamino)pyrrolidin-1-yl)pyrimidin-4-yl)-5-methylbenzo[d]thiazol-6-yl)acetic acid] | 8.40 | – |
| Cc1cc2nc(-c3cncc(N4CCN(C(C)C)CC4)n3)sc2c(-c2ccc(Cl)cc2)c1[C@H](OC(C)(C)C)C(=O)O [Compound 480, (S)-2-tert-butoxy-2-(7-(4-chlorophenyl)-2-(6-(4-isopropylpiperazin-1-yl)pyrazin-2-yl)-5-methylbenzo[d]thiazol-6-yl)acetic acid] | – | pEC50 [2]: 8.70 |
| Cc1cc2nc(-c3cncc(N4CCN(C(C)C)CC4)c3)sc2c(-c2ccc(Cl)cc2)c1[C@H](OC(C)(C)C)C(=O)O [Compound 481, (S)-2-tert-butoxy-2-(7-(4-chlorophenyl)-2-(5-(4-isopropylpiperazin-1-yl)pyridin-3-yl)-5-methylbenzo[d]thiazol-6-yl)acetic acid] | 7.77 | – |
| Cc1cc2nc(-c3cncc(N4CCN(C5COC5)CC4)c3)sc2c(-c2ccc(Cl)cc2)c1[C@H](OC(C)(C)C)C(=O)O [Compound 482, (S)-2-tert-butoxy-2-(7-(4-chlorophenyl)-5-methyl-2-(5-(4-(oxetan-3-yl)piperazin-1-yl)pyridin-3-yl)benzo[d]thiazol-6-yl)acetic acid] | 7.85 | – |
| Cc1cc2nc(-c3cccc(N4CCN(C(C)C)CC4)c3)sc2c(-c2ccc(Cl)cc2)c1[C@H](OC(C)(C)C)C(=O)O [Compound 483, (S)-2-tert-butoxy-2-(7-(4-chlorophenyl)-2-(3-(4-isopropylpiperazin-1-yl)phenyl)-5-methylbenzo[d]thiazol-6-yl)acetic acid] | 7.43 | – |
| Cc1cc2nc(-c3csc(N4CCN(C(C)C)CC4)n3)sc2c(-c2ccc(Cl)cc2)c1[C@H](OC(C)(C)C)C(=O)O [Compound 484, (S)-2-tert-butoxy-2-(7-(4-chlorophenyl)-2-(2-(4-isopropylpiperazin-1-yl)thiazol-4-yl)-5-methylbenzo[d]thiazol-6-yl)acetic acid] | 8.05 | – |
| Cc1cc2nc(-c3cnc(N4CCN(C(C)C)CC4)s3)sc2c(-c2ccc(Cl)cc2)c1[C@H](OC(C)(C)C)C(=O)O [Compound 485, (S)-2-tert-butoxy-2-(7-(4-chlorophenyl)-2-(2-(4-isopropylpiperazin-1-yl)thiazol-5-yl)-5-methylbenzo[d]thiazol-6-yl)acetic acid] | 7.82 | – |
| Cc1cc2nc(-c3ncc(N4CCN(C(C)C)CC4)s3)sc2c(-c2ccc(Cl)cc2)c1[C@H](OC(C)(C)C)C(=O)O [Compound 486, (S)-2-tert-butoxy-2-(7-(4-chlorophenyl)-2-(5-(4-isopropylpiperazin-1-yl)thiazol-2-yl)-5-methylbenzo[d]thiazol-6-yl)acetic acid] | 7.51 | – |
| Cc1cc2nc(-c3ncc4c(n3)c(C)nn4C)sc2c(-c2ccc(Cl)cc2)c1[C@H](OC(C)(C)C)C(=O)O [Compound 487, (S)-2-tert-butoxy-2-(7-(4-chlorophenyl)-2-(1,3-dimethyl-1H-pyrazolo[4,3-d]pyrimidin-5-yl)-5-methylbenzo[d]thiazol-6-yl)acetic acid] | 7.92 | – |
| Cc1cc2nc(-c3ccnc(-c4ncc5c(n4)c(C)nn5C)c3)sc2c(-c2ccc(Cl)cc2)c1[C@H](OC(C)(C)C)C(=O)O [Compound 488, (S)-2-tert-butoxy-2-(7-(4-chlorophenyl)-2-(2-(1,3-dimethyl-1H-pyrazolo[4,3-d]pyrimidin-5-yl)pyridin-4-yl)-5-methylbenzo[d]thiazol-6-yl)acetic acid] | – | pEC50 [2]: 7.96 |
| Cc1cc2nc(-c3ccnc(-c4ccc5nc(N)ccc5c4)n3)sc2c(-c2ccc(Cl)cc2)c1[C@H](OC(C)(C)C)C(=O)O [Compound 489, (S)-2-(2-(2-(2-aminoquinolin-6-yl)pyrimidin-4-yl)-7-(4-chlorophenyl)-5-methylbenzo[d]thiazol-6-yl)-2-tert-butoxyacetic acid] | 7.70 | – |
| Cc1cc2nc(-c3cnc(C)c(-c4ccc5c(cnn5C)n4)c3)sc2c(-c2ccc(Cl)cc2)c1[C@H](OC(C)(C)C)C(=O)O [Compound 490, (S)-2-tert-butoxy-2-(7-(4-chlorophenyl)-5-methyl-2-(6-methyl-5-(1-methyl-1H-pyrazolo[4,3-b]pyridin-5-yl)pyridin-3-yl)benzo[d]thiazol-6-yl)acetic acid] | – | pEC50 [2]: 8.52 |
| Cc1cc2nc(N3CCN(C)[C@@H](c4ccc5c(cnn5C)c4)C3)sc2c(-c2ccc(Cl)cc2)c1[C@H](OC(C)(C)C)C(=O)O [Compound 491, (S)-2-tert-butoxy-2-(7-(4-chlorophenyl)-5-methyl-2-((S)-4-methyl-3-(1-methyl-1H-indazol-5-yl)piperazin-1-yl)benzo[d]thiazol-6-yl)acetic acid] | 7.29 | – |
| Cc1cc2nc(N3CCN(C)[C@H](c4ccc5c(cnn5C)c4)C3)sc2c(-c2ccc(Cl)cc2)c1[C@H](OC(C)(C)C)C(=O)O [Compound 492, (S)-2-tert-butoxy-2-(7-(4-chlorophenyl)-5-methyl-2-((R)-4-methyl-3-(1-methyl-1H-indazol-5-yl)piperazin-1-yl)benzo[d]thiazol-6-yl)acetic acid] | 8.52 | – |
| Cc1cc2nc(-c3ccc4c(c3)c(N3CCN(C(C)C(F)(F)F)CC3)nn4C)sc2c(-c2ccc(Cl)cc2)c1[C@H](OC(C)(C)C)C(=O)O (stereo partly drawn) [Compound 493, (2S)-2-tert-butoxy-2-(7-(4-chlorophenyl)-5-methyl-2-(1-methyl-3-(4-((2R/2S)-1,1,1-trifluoropropan-2-yl)piperazin-1-yl)-1H-indazol-5-yl)benzo[d]thiazol-6-yl)acetic acid] | – | pEC50 (Table 2, MT-4 cells infected with HIV-IIIb, 5 days of incubation, CellTiter-Glo, read-out: EC50): 7.29 |
| Cc1cc2nc(-c3ccc4c(n3)c(N3CCN(C)CC3)nn4C)sc2c(-c2ccc(Cl)cc2)c1[C@H](OC(C)(C)C)C(=O)O [Compound 495, (S)-2-tert-butoxy-2-(7-(4-chlorophenyl)-5-methyl-2-(1-methyl-3-(4-methylpiperazin-1-yl)-1H-pyrazolo[4,3-b]pyridin-5-yl)benzo[d]thiazol-6-yl)acetic acid] | 8.40 | – |

— patent US8987250B2 (Gilead Sciences, Inc., priority 2012, dated 2015)
